Test results: ChEMBL document CHEMBL1201862, “PubChem BioAssay data set” (2004)
Activity calls are given as the source filed them.

Experiments:
[1] = tested on: H9c2; test: cells; format: functional, cell-based; details: Rattus norvegicus, H9c2, Myocardium;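 further: confirmatory concentration-response retest of ultra-high-throughput screening hits for modulation of myocardial damage; cell death induced by hydrogen peroxide oxidative stress; compound pretreatment for 60 min then peroxide exposure for 2 h; potency is for protecting the cells against peroxide damage rather than for killing them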
[2] = A549 cell cytotoxicity, dose response, cytotoxicity control, plate reader, cherry-pick, antagonist series (AID 743412); format: functional, cell-based
[3] = HepG2 cell cytotoxicity, dose response, cytotoxicity control, plate reader, cherry-pick, antagonist series (AID 743416); format: functional, cell-based
[4] = LGR2 antagonists, dose response, cell-based, HEK293, CRE-luciferase reporter, cherry pick, set 2 (AID 743343); format: functional;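 further: transfected cells were stimulated with diluted bursicon conditioned medium after compound addition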
[5] = MC4R antagonists, dose response, counter-screen for LGR2 antagonist project, cell-based, plate reader, cherry pick (AID 743444); format: functional;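 further: transfected HEK 293 cells stimulated with alpha-MSH peptide; potency of inhibitors of the alpha-MSH evoked signal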
[6] = HEK293 cell cytotoxicity, dose response, cytotoxicity control, plate reader, cherry-picked samples (AID 743446); format: functional, cell-based
[7] = target: T1, Calpain-2 catalytic subunit (Sus scrofa, UniProt P43367); test: pig calpain II inhibitor potency, dose response, biochemical, fluorogenic peptide substrate (AID 1420); format: functional
T1 sequence (P43367 whole entry): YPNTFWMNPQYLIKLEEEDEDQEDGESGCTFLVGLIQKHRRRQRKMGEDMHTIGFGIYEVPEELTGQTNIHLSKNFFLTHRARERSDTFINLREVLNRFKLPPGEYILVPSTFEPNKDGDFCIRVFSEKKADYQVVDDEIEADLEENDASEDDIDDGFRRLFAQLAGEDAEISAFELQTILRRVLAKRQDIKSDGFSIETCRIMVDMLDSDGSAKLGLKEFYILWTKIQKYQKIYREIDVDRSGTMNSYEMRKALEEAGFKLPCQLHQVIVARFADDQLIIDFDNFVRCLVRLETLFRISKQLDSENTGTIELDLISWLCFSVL

[8] = tested on: BJ; test: cytotoxicity toward BJ-TERT fibroblasts, dose response, cell-based, RAS-independent, luminescence (AID 1933); format: functional; details: Homo sapiens
[9] = tested on: BJ; test: cells; format: functional, cell-based; details: Homo sapiens
[10] = tested on: BJ; test: cytotoxicity toward BJ-TERT-LT-ST fibroblasts, dose response, cell-based, RAS-independent, luminescence (AID 1935); format: functional; details: Homo sapiens;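 further: BJ fibroblasts immortalized with TERT plus LT and ST oncogenes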
[11] = cytotoxicity toward DRD oncogenic fibroblasts, dose response, cell-based, non-viral oncogenic, luminescence (AID 1934); format: functional; details: Homo sapiens
[12] = microbe, parasite or virus in culture; format: functional; details: Mycobacterium tuberculosis
[13] = target: T2, Corticotropin-releasing factor receptor 2/Corticotropin-releasing factor-binding protein (Homo sapiens, UniProt P24387+Q13324); test: Dose Response confirmation of uHTS hits for small molecule antagonists of the CRF-binding protein and CRF-R2 receptor complex.; format: functional; details: read-out: IC50_Mean
T2 sequence (Q13324 whole entry): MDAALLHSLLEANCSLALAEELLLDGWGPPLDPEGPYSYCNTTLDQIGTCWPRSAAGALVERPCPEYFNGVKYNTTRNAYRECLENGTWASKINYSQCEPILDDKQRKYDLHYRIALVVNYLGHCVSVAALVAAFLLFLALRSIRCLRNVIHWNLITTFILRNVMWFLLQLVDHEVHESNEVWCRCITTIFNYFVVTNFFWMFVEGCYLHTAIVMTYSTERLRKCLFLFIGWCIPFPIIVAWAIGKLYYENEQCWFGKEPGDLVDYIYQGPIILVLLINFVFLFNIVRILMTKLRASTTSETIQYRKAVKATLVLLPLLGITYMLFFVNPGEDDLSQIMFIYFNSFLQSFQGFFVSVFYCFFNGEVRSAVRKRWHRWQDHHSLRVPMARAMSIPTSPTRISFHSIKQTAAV
T2 sequence (P24387 whole entry): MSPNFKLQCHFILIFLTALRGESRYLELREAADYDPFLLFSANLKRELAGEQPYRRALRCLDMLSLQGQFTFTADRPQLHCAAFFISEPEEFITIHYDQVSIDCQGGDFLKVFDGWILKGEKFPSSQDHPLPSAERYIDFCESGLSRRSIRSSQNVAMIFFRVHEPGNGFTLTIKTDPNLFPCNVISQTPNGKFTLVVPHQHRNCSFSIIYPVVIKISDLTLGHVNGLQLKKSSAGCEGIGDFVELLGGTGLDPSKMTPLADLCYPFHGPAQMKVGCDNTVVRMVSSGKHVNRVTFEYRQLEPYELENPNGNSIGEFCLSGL

[14] = target: T2, Corticotropin-releasing factor receptor 2/Corticotropin-releasing factor-binding protein; test: activators of CRF receptor 2 with binding protein – uHTS hits, confirmation (AID 602473); format: functional; details: read-out: EC50_Mean
[15] = target: Paired box protein Pax-8 (Homo sapiens, UniProt Q06710); test: inhibitors of PAX8-driven TPO luciferase reporter, dose response, RMG-I cells, cherry-pick (AID 687027); format: functional, cell-based;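 further: luciferase reporter driven by Pax8 target thyroperoxidase promoter measured by SteadyGlo luminescence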
[16] = target: T3, High affinity choline transporter 1 (Homo sapiens, UniProt Q9GZV3); test: CHT inhibitors, dose response, cell-based, 5-point CRC, membrane potential dye (AID 504840); format: functional
T3 sequence (Q9GZV3 whole entry): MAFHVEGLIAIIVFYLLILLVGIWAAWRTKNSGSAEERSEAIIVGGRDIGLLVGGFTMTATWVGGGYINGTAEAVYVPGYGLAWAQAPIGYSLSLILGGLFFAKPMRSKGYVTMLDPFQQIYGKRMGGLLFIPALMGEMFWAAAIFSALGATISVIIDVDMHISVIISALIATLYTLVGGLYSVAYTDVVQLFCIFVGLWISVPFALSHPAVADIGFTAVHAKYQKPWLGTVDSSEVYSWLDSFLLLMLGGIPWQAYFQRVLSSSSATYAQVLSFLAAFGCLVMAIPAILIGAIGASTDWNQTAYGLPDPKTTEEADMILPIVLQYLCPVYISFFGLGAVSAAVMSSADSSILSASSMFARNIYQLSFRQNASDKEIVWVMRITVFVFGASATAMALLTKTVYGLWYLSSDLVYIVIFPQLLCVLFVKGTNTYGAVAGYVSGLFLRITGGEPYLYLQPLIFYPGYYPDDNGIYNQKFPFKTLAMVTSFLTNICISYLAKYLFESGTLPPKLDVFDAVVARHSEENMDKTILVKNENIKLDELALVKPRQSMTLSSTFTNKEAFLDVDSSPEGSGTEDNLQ

[17] = target: FAD-linked sulfhydryl oxidase ALR (Homo sapiens, UniProt P55789); test: inhibitors of human ALR sulfhydryl oxidase, dose response, biochemical, H2O2 detection, luminescence, cherry-pick (AID 493248)
[18] = target: T4, Polyadenylate-binding protein 1 (Homo sapiens, UniProt P11940); test: PABP1 MLLE–PAM2 interaction inhibitors, dose response, miRNA deadenylation inhibitor project, biochemical, fluorescence polarization, Cy5-PAM2 peptide, secondary (AID 602260); format: functional; details: read-out: IC50_Mean
[19] = target: T4, Polyadenylate-binding protein 1; test: PABP1 MLLE–PAM2 binding inhibitor potency, dose response, biochemical, fluorescence polarization, FITC-PAM2 peptide (AID 602259); format: functional; details: read-out: IC50_Mean

T4 sequence (P11940 whole entry): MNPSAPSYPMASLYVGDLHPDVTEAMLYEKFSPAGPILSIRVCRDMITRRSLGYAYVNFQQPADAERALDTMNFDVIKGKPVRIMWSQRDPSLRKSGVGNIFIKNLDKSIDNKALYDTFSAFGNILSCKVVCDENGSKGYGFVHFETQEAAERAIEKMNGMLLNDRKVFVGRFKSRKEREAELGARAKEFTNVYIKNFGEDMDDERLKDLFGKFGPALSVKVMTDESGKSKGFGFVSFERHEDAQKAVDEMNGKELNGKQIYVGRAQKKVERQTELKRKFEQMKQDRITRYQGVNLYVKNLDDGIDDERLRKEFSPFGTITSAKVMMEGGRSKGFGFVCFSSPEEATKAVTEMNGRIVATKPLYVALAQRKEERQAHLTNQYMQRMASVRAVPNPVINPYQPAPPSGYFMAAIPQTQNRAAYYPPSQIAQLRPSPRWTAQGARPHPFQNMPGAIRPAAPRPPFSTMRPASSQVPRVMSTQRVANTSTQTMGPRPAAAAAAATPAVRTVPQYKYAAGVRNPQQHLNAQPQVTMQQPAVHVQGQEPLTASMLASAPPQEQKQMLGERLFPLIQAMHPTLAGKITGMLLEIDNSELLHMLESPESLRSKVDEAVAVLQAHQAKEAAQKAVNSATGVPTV
Sequence of FAD-linked sulfhydryl oxidase ALR (P55789 whole entry): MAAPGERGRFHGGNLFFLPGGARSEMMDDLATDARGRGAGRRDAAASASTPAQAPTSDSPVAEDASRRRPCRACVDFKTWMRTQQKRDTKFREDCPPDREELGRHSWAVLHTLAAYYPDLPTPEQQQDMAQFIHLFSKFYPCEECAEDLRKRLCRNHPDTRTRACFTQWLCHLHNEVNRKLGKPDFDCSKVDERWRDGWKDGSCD
Sequence of Paired box protein Pax-8 (Q06710 whole entry): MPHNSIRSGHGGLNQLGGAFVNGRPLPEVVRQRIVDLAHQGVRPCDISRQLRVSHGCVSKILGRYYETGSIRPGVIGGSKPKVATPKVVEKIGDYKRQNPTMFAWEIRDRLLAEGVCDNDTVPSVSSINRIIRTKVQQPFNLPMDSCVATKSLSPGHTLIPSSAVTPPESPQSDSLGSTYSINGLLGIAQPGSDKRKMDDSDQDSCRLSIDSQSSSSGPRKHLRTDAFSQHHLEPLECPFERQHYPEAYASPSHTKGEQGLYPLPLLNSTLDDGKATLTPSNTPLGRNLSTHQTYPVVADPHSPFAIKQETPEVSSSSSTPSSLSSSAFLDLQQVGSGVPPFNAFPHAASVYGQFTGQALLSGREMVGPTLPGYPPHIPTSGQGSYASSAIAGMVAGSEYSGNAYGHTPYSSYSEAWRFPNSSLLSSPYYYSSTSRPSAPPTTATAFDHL

With `CCOC(=O)COc1ccc2c3c(c(=O)oc2c1)CCCC3` the IC50 [1] was 31.2 µM (inactive).
For `COc1ccc(-c2ccc3c(c2)S(=O)(=O)c2cccc(C(=O)NC[C@@H]4CCCO4)c2C3=O)cc1OC`, the IC50 [1] was > 79 µM (inactive).
In the case of `Cc1ccc(S(=O)(=O)Nc2ccc3c(c2)CC(=O)N([C@H](C)CO)C[C@@H](C)[C@H](CN(C)Cc2ccc(C(F)(F)F)cc2)O3)cc1`, the AC50 [2] is reported as 8.46 µM (active), the AC50 [3] is reported as 10.5 µM (active) and the AC50 [4] is reported as 21.6 µM (active). For the same molecule, the AC50 [5] was 14.1 µM (active) and the AC50 [6] was 17.8 µM (active).
For `CC(C)NC(=S)N/N=C/C1=CCC2CC1C2(C)C` (stereo not drawn), the IC50 [7] was 49 µM (not active).
In the case of `COc1ccccc1C#Cc1ccc([C@H]2[C@H](C#N)N(C(=O)C3CCCCC3)[C@H]2CO)cc1`, the AC50 [2] is reported as 24.5 µM (active), the AC50 [3] is reported as 43.7 µM (active) and the AC50 [4] is reported as 5.49 µM (active). For the same molecule, the AC50 [5] was 5.75 µM (active) and the AC50 [6] was 9.53 µM (active).
With `Cc1cc(C)c2c(NC(=O)CCl)nn(C)c2n1` the EC50 [8] was 28.7 µM (active), the EC50 [9] was > 150 µM (not active) and the EC50 [10] was > 150 µM (inconclusive). For the same molecule, the EC50 [11] was 29.2 µM (active).
With `O=C(CCl)Nc1nccs1` the CC50 [12] was 13.7 µM (active), the IC50 [13] was > 47.1 µM (inactive) and the EC50 [14] was > 53 µM (inactive).
With `Cc1noc(C)c1S(=O)(=O)N(C)C[C@@H]1OCCCC[C@H](C)Oc2ccc(NS(=O)(=O)c3ccc(Cl)cc3)cc2C(=O)N([C@H](C)CO)C[C@@H]1C` the AC50 [15] was 10.4 µM (active).
For `CCCOc1ccc(C(CC(=O)O)NC(=O)CC(c2ccccc2)c2ccccc2)cc1` (stereo not drawn), the IC50 [16] was 12 µM (active).
For `CC(C)c1ccc(NC2CCCN(C(=O)c3cc(C(C)C)nc(N)n3)C2)cc1` (stereo not drawn), the AC50 [17] was 0.714 µM (active).
With `c1ccc2nc3[nH]cnc3nc2c1` the IC50 [18] was > 66 µM (inactive) and the IC50 [19] was > 66 µM (inactive).
With `CSCCCN=C(S)N1CCN(c2ccc(C(C)=O)cc2)CC1` the CC50 [12] was > 40 µM (active).
In the case of `Cc1ccc(/C=C(\NC(=O)c2ccc(C)cc2)c2n[nH]c(S)n2)cc1`, the CC50 [12] is reported as > 40 µM (active).
In the case of `O=C1C=C(NNC(=O)c2cccnc2)CC(c2ccco2)C1` (stereo not drawn), the IC50 [18] is reported as > 66 µM (inactive) and the IC50 [19] is reported as > 66 µM (inactive).
In the case of `COc1ccc(OC)c(C2C(C#N)=C(N)Oc3cc(N)ccc32)c1` (stereo not drawn), the AC50 [17] is reported as 3.1 µM (active).
For `CC1CCN(S(=O)(=O)c2nnc(NC(=O)c3cccc([N+](=O)[O-])c3)s2)CC1`, the IC50 [16] was 11.5 µM (active).
With `CCOc1ccc(CCNC(=O)c2cc3c(C)nccc3nc2O)cc1OCC` the IC50 [1] was > 79 µM (inactive).
For `CCCn1nc2cc(C(=O)NCc3ccc(C)cc3)ccc2c1OCC`, the IC50 [16] was 8.18 µM (active).
